Data: article PMC7397269, “Synthesis and Evaluation of New Coumarin Derivatives as Antioxidant, Antimicrobial, and Anti-Inflammatory Agents” (Molecules, 2020)
Values after ≈ are worked out from the molar mass of the structure shown. Values joined by “and” are separate entries in the source; they are usually repeats but may differ in a detail not shown here. Equal entries are not always repeated. Where two headings read alike, the source gives them in different places.

Tests used:
[1] = tested on: Saccharomyces cerevisiae local isolate; assay: Agar well diffusion, S. cerevisiae; format: cell-based; conditions: read-out: diameter of inhibition zone, SC
Description: (§1) The new molecules were individually tested for their antimicrobial activity in vitro against standard bacteria strains from the American Type Culture Collection (ATCC), namely, Staphylococcus aureus ATCC 29213, Bacillus subtilis ATCC 6633, Bacillus megaterium ATCC 9885 (Gram-positive), Escherichia coli ATCC 2592, and Pseudomonas aeruginosa ATCC 27,953 (Gram-negative). The compounds were also microbiologically tested against locally isolated Saccharomyces cerevisiae (yeast) and the standard Agricultural Research Service Culture Collection (NRRL) strain of the yeast-like pathogenic fungus Candida albicans NRRL Y-477. Primary screening was conducted using the agar well diffusion method using nutrient agar (NA) medium and Sabourand dextrose agar (SDA) medium for the tested pathological bacteria and yeast, respectively. […].
(§2) Antimicrobial tests were conducted via the agar well diffusion method using 100 μL of suspension containing 1 × 10^8 CFU/mL pathological tested bacteria and 1 × 10^6 CFU/mL yeast spread on NA and SDA, respectively. After the media cooled and solidified, wells (10 mm in diameter) were made in the solidified agar and loaded with 100 μL of the tested compound solution prepared by dissolving 10 mg of the chemical compound in 1 mL dimethyl sulfoxide (DMSO). The inoculated plates were then incubated for 24 h at 37 °C for bacteria and yeast growth. DMSO served as negative control. Ciprofloxacin (10 mg/mL) and ketoconazole (10 mg/mL) were used as standards for antibacterial and antifungal activity, respectively. After incubation, antimicrobial activity was evaluated by measuring the zone of inhibition against the test organisms and compared with that of the standard. Antimicrobial activities were expressed as the diameter of the inhibition zone (IZ) in mm. The experiment was carried out in triplicate and the average zone of inhibition was calculated.

[2] = target: T1, COX-1 (Homo sapiens, UniProt P23219); assay: COX-1 inhibition, Cayman assay kit; format: biochemical; conditions: mean of two determinations
T1 construct: purchased Cayman Chemical 701070
T1 sequence (P23219 24-599): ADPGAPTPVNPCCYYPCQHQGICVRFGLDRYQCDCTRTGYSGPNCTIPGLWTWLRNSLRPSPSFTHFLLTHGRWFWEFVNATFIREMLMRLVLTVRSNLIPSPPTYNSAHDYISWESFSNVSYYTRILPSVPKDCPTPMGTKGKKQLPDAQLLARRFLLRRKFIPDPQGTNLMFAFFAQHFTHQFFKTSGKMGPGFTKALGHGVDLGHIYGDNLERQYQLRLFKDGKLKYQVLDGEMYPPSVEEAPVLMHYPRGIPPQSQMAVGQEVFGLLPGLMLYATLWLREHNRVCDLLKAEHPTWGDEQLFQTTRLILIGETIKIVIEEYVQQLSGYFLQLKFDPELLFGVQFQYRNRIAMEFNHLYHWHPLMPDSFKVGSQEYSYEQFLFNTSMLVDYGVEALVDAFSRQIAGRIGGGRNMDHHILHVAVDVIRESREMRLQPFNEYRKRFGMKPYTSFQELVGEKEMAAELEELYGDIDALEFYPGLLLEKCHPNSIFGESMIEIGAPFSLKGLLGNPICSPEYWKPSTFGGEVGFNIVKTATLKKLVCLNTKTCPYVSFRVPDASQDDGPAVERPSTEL

[3] = tested on: Bacillus subtilis ATCC 6633; assay: Agar well diffusion, B. subtilis; format: cell-based; conditions: ATCC6633, 100 μL of 10 mg/mL in DMSO, read-out: diameter of inhibition zone, BS
Description: as §1, §2

[4] = tested on: Staphylococcus aureus ATCC 29213; assay: Agar well diffusion, S. aureus; format: cell-based; conditions: ATCC29213, 100 μL of 10 mg/mL in DMSO, read-out: diameter of inhibition zone, SA
Description: as §1, §2

[5] = target: T2, COX-2 (Homo sapiens, UniProt P35354); assay: COX-2 inhibition, Cayman assay kit; format: biochemical; conditions: for IC50: mean of two determinations; for SI, selectivity index (COX-1/COX-2): ratio of COX-1/COX-2 IC50
T2 construct: purchased Cayman Chemical 701080
T2 sequence (P35354 18-604): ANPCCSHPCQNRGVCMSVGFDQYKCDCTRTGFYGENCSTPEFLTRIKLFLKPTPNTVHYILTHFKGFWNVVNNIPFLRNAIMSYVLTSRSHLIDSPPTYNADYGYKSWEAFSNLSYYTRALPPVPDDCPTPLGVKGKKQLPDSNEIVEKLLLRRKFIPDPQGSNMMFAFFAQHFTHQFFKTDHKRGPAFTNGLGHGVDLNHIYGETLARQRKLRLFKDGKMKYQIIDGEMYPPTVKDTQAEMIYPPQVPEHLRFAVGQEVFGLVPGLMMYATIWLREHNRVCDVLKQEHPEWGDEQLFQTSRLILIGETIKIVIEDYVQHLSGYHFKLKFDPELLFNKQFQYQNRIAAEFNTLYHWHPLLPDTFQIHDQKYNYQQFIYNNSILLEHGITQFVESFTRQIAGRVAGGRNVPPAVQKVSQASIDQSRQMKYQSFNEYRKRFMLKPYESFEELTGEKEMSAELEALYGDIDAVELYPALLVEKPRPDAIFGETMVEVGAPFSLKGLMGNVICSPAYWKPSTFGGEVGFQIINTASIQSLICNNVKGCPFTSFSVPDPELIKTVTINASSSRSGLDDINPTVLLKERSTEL

[6] = tested on: trypsin; assay: Proteinase-inhibitory activity; format: biochemical; conditions: 250 µg/mL; mean ± SD (n = 3)
Procedure: The newly synthesised compounds were individually tested for their in vitro anti-inflammatory activity against proteinase enzyme. […] This test was performed at the Pharmacology Department, Medical Research Division, National Research Centre, Cairo, Egypt. Furthermore, compounds 2–8 were evaluated for their COX1/COX2 inhibitory activities.
The test was performed according to El-Serwy et al. with minor modifications. The reaction mixture (2 mL) contained 0.06 mg trypsin, 20 mM Tris HCl buffer (pH 7.4), and 1 mL test sample (250 µg/mL for each compound). After incubating for 5 min, 1 mL of 0.8% (w/v) casein was added. The mixture was incubated for an additional 20 min. The reaction was arrested by adding 1 mL of 10% perchloric acid. The cloudy suspension was centrifuged, and the absorbance of the supernatant was read at 280 nm. Reference standard aspirin was used as the positive control. The experiment was performed in triplicate. The percent inhibition of protein denaturation was calculated using the following Equation (2):(2) % Inhibition=100−A control −A test/A control×100 where Acontrol and Atest represent the absorbance of the control reaction without and with the sample, respectively.

[7] = tested on: Candida albicans NRRL Y-477; assay: Agar well diffusion, C. albicans; format: cell-based; conditions: NRRLY477, 100 μL of 10 mg/mL in DMSO, read-out: diameter of inhibition zone, CA
Description: as §1, §2

[8] = tested on: Bacillus megaterium ATCC 9885; assay: Agar well diffusion, B. megaterium; format: cell-based; conditions: Priestia megaterium, ATCC9885, 100 μL of 10 mg/mL in DMSO, read-out: diameter of inhibition zone, BM
Description: as §1, §2

[9] = tested on: Pseudomonas aeruginosa ATCC 27,953; assay: Agar well diffusion, P. aeruginosa; format: cell-based; conditions: ATCC27, 100 μL of 10 mg/mL in DMSO, read-out: diameter of inhibition zone, PA
Description: as §1, §2

[10] = DPPH antioxidant assay (radical scavenging); format: biochemical; conditions: mean ± SD (n = 3)
Procedure: The antioxidant effects of the synthesised compounds were assessed using the 2,2-diphenyl-1-picrylhydrazyl (DPPH) antioxidant assay. Table 1 summarises the antioxidant effects of the test samples and ascorbic acid except for compound 5b because it was produced in poor yield.
The radical scavenging activity of the synthesised compounds was measured using the DPPH microplate-based method. The absorbance was measured using a microplate/cuvette reader (Spectramax M5, Molecular Devices, San Jose, CA, USA). Reference standard ascorbic acid was utilised as the positive control for this assay. Test samples were prepared at a starting concentration of 200 μg/mL after mixing with 100 μL of 0.2 mM DPPH methanolic solution. […] Samples were incubated with DPPH in the dark for 30 min at room temperature (25 °C). The methanolic DPPH solution was prepared daily and stored in a flask covered with aluminium foil. DPPH radicals have an absorption maximum (λmax) at 515 nm, at which the absorbance values were measured and converted into a percentage of antioxidant activity.
The methanolic DPPH solution without antioxidants was used as a control, and samples in methanol alone served as a background control. IC50 was determined using GraphPad Prism 7 (GraphPad Software Inc., San Diego, CA, USA). The percent inhibition was calculated using the following Equation (1):(1) % Inhibition=100−Sample Absorbance −Sample background Absorbance/DPPH only Absorbance×100
The assay was carried out in triplicate and performed as much as possible in an area protected against light. The data points are presented as the mean ± standard deviation (SD, n = 3).

[11] = tested on: Escherichia coli ATCC 2592; assay: Agar well diffusion, E. coli; format: cell-based; conditions: ATCC2592, 100 μL of 10 mg/mL in DMSO, read-out: diameter of inhibition zone, EC
Description: as §1, §2

[12] = well diffusion, 100 μL of 10 mg/mL in DMSO, S. cerevisiae

Row | Compound | melting point [°C] | zone of inhibition at 10000 µg/mL [1] [mm] | IC50 [2] [µM] | zone of inhibition at 10000 µg/mL [3] [mm] | zone of inhibition at 10000 µg/mL [4] [mm] | IC50 [5] [µM] | SI, selectivity index (COX-1/COX-2) [5] | % Inhibition (proteinase) [6] [%] | zone of inhibition at 10000 µg/mL [7] [mm] | zone of inhibition at 10000 µg/mL [8] [mm] | zone of inhibition at 10000 µg/mL [9] [mm] | IC50 [10] | zone of inhibition at 10000 µg/mL [11] [mm] | zone of inhibition at 10000 µg/mL [1, 12] [mm]
1 | Cc1ccc2oc(=O)c3c(c2c1)OC(/N=C/N(C)C)=C(C#N)C3c1ccco1 (racemic) [4b, (±)-N′-(3-cyano-4-(furan-2-yl)-9-methyl-5-oxo-4H,5H-pyrano[3,2-c]chromen-2-yl)-N,N-dimethylformimidamide] | 273 to 275 | < 15 | 57.5 | < 15 | 16 | 25.2 | 2.28 | 33.17 ± 2.79 | < 15 | < 15 | 15 | — ((—): inactive (IC50 > 200 μg/mL)) | 15 | –
2 | O=C1O[C@H]([C@@H](O)CO)C(O)=C1O [Ascorbic acid, reference compound] | – | – | – | – | – | – | – | – | – | – | – | 2.83 ± 0.166 µg/mL (≈ 16.1 µM) | – | –
3 | CC(=O)c1ccc(NS(=O)(=O)c2c(O)c3cc(C)ccc3oc2=O)cc1 [8f, N-(4-acetylphenyl)-4-hydroxy-6-methyl-2-oxo-2H-chromene-3-sulfonamide] | 231 to 232 | – | 7.92 | 15 | 16 | 25.7 | 0.3 and 0.31 | 2.0 ± 1.4 | < 15 | 15 | < 15 | 35.36 ± 3.265 µg/mL (≈ 94.7 µM) | < 15 | < 15
4 | CC(=O)c1ccc(NS(=O)(=O)c2c(O)c3cc(Cl)ccc3oc2=O)cc1 [8e, N-(4-acetylphenyl)-6-chloro-4-hydroxy-2-oxo-2H-chromene-3-sulfonamide] | 238 to 240 | – | 19.9 | 15 | < 15 | 9.22 | 2.2 and 2.16 | 18.5 ± 3.47 | < 15 | 16 | < 15 | 32.85 ± 1.322 µg/mL (≈ 83.4 µM) | < 15 | < 15
5 | CC(=O)Oc1ccccc1C(=O)O [Aspirin, reference compound] | – | – | – | – | – | – | – | 45.83 ± 4.21 | – | – | – | – | – | –
6 | Cc1ccc2oc(=O)c3c(c2c1)OC(/N=C/N(C)C)=C(C#N)C3c1ccc([N+](=O)[O-])cc1 (racemic) [4a, (±)-N′-(3-cyano-9-methyl-4-(4-nitrophenyl)-5-oxo-4H,5H-pyrano[3,2-c]chromen-2-yl)-N,N-dimethylformimidamide] | 279 to 281 | < 15 | 12.5 | < 15 | 16 | 7.99 | 1.56 | 31.99 ± 2.45 | < 15 | < 15 | < 15 | — ((—): inactive (IC50 > 200 μg/mL)) | < 15 | –
7 | Cc1ccc2oc(=O)c3c(c2c1)OC(/N=C/c1ccccc1)=C(C#N)C3c1ccco1 (racemic) [5b, (±)-2-(benzylideneamino)-4-(furan-2-yl)-9-methyl-5-oxo-4H,5H-pyrano[3,2-c]chromene-3-carbonitrile] | 250 to 252 | – | 215 | – | – | 19.6 | 10.9 and 10.97 | – | – | – | – | – | – | –
